From patent US10085973B2, “Pharmaceutical composition containing a compound having a thrombopoietin receptor agonistic activity” (Shionogi & Co., Ltd., priority 2012, dated 2018)
Values after ≈ are worked out from the molar mass of the structure shown. Read-outs that look alike come from different tables or passages of the source.

Columns and labels:
[1] = test system: patients with thrombocytopenia caused by chronic liver disease; assay: Example 2 Test Example 2: placebo-controlled repeated oral administration before percutaneous liver ablation with discontinuation criteria; type: in vivo, human
Text: To patients with thrombocytopenia caused by chronic liver disease, lusutrombopag as a pretreatment of percutaneous liver ablation was orally administered repeatedly for 7 days while applying the discontinuation criteria designed in Example 1 and profile of the platelet count was studied. In the present Example, the term “ablation” refers to radiofrequency ablation.
Patients with thrombocytopenia caused by chronic liver disease who are scheduled to undergo percutaneous liver ablation.
Patients who meet the following inclusion criteria are included. • 1) Age: 20 years of age or older (at the time of consent); • 2) Patients who themselves can give a consent in writing; • 3) Patients with thrombocytopenia caused by chronic liver disease; • 4) Patients who are scheduled to undergo percutaneous liver ablation for primary liver cancer; • 5) Patients having a platelet count which is less than 5×10^4/μL at the time of screening; • 6) Patients whose ECOG* Performance Status of Grade is 0 to 1; and • 7) Patients who can practice contraception from entry to the end of observation. (Exclusion Criteria)
Patients who meet the following criteria are excluded. • 1) Patients who underwent splenectomy; • 2) Patients who have a complication presenting thrombocytopenia; • 3) Patients who underwent liver transplant; • 4) Degree of hepatic disorder classified as the Child-Pugh class of C; • 5) Hepatic encephalopathy uncontrolled by medicaments; • 6) Ascites uncontrolled by medicaments; • 7) Patients who have a complication of malignant tumor other than primary liver cancer; • 8) Patients who have a complication or a history of thrombosis or thrombotic disease; • 9) Patients who have absence of hepatopetal blood flow in the portal vein; • 10) Patients who have a complication or a history of disease with hemorrhage risk; • 11) Patients who received a therapeutic agent that affects a platelet count or underwent a therapy that affects a platelet count within 90 days before registry; • 12) Patients who received a blood product (excluding erythrocyte product) within 14 days before registry; or • 13) Patients who previously received a TPO receptor agonist. (Drugs which are Prohibited, Limited or Allowed for Coadministration During the Trial)
In each allocated group, lusutrombopag is orally administered repeatedly once daily for 7 days. After patients are monitored on day 8, they undergo percutaneous liver ablation before day 14 from initiation of administration. They are monitored until about day 30 after initiation of administration.
Lusutrombopag is orally administered repeatedly once daily for 7 days. On day 1, the drug is administered at the time of visit. On day 5 to day 7, the drug shall be administered after checking the platelet count measured on the same day. Administration of lusutrombopag shall be discontinued when the platelet count reaches to the following criteria (administration discontinuating criteria) in a clinical examination after administration of the investigational drug.
Administration discontinuating criteria: when the platelet count has increased by 2×10^4/μL or more from the platelet count before initiation of administration and the platelet count has reached to 5×10^4/μL or higher.
As the platelet count before initiation of administration, the platelet count determined within 7 days before initiation of administration was used.
Daily dose was any one of 2.0, 3.0 and 4.0 mg of lusutrombopag.
Proportion of patients who have a platelet count on day 8 after initiation of administration that increased by 2×10^4/μL or more from a platelet count before initiation of administration and reached to 5×10^4/μL or higher. […]

[2] = test system: platelet count; assay: PD model from phase 1 trial in healthy male adults (profile of platelet count); type: in vivo, human; details: for EC50: Homo sapiens, Platelet, read-out: EC50 (sigmoid Emax model), mean
Text: Using the plasma concentration of the drug and the platelet count data of 54 cases obtained in phase 1 trial carried out in Japan to healthy male adults, a PK/PD model was constructed that can describe pharmacokinetics and a profile of a platelet count. The PK model describing pharmacokinetics was a three-compartment model including three compartments in the absorption process in order to explain the delay in absorption. The PD model describing the relation between the plasma concentration and the profile of platelets counts was a model including five compartments in order to explain the maturation process of platelets. […] We assumed that the distributions of respective model parameters and the distributions of the residual errors of the models follow a log-normal distribution. Parameters were estimated by using the first order conditional estimation method with interaction in a software NONMEM (version VI, level 2.0).

[3] = Estimated PK model parameters for chronic liver disease patients (for Monte-Carlo simulation); design: species or system human
Text: Based on the PK/PD model in healthy adults as described in (Test Example 1), model parameters in chronic liver disease patients were estimated on the basis of the following assumptions.
PK Parameters (CL, V2/F, Q2/F, V3/F, Q3/F, V4/F, Q4/F, ktr and ka):
Therefore, as PK parameters those from healthy adults were used. As parameters ka and ktr, estimated values under the conditions of postprandial and tablets were used in line with clinical usage.

patients who had a platelet count of higher than 20×10^4/μL during the observation period ([1]; daily dose 2.0, 3.0 and 4.0 mg): None
Q3/F, mean [3]: 0.946 L/h
Q4/F, mean [3]: 0.0262 L/h
V3/F, mean [3]: 6.28 L
V4/F, mean [3]: 2.71 L
ka, mean ([3]; postprandial and tablets): 0.854 h⁻¹
ktr, mean ([3]; postprandial and tablets): 1.38 h⁻¹
CL, mean ([3]; value of healthy adults used): 0.776 L/h
V2/F, mean ([3]; × (1 + (BW − 63) × 0.0172)): 15.9 L
Compound: CCCCCCO[C@@H](C)c1cccc(-c2csc(NC(=O)c3cc(Cl)c(/C=C(\C)C(=O)O)c(Cl)c3)n2)c1OC [lusutrombopag, (E)-3-[2,6-dichloro-4-[4-[3-[(S)-1-hexyloxyethyl]-2-methoxyphenyl]-thiazol-2-ylcarbamoyl]-phenyl]-2-methylacrylic acid]
Endpoint 2: Number of patients who had a platelet count during the trial that increased by 2 × 10^4/μL or more from the count before initiation of administration and reached to 5 × 10^4/μL or higher ([1]; 2.0 mg once daily, n = 15): 10
Number of patients to whom administration was discontinued according to the administration discontinuating criteria ([1]; 2.0 mg once daily, n = 15): 3
Number of patients who received platelet transfusion ([1]; 2.0 mg once daily, n = 15): 3
Endpoint 2: Number of patients who had a platelet count during the trial that increased by 2 × 10^4/μL or more from the count before initiation of administration and reached to 5 × 10^4/μL or higher ([1]; 3.0 mg once daily, n = 16): 11
Number of patients to whom administration was discontinued according to the administration discontinuating criteria ([1]; 3.0 mg once daily, n = 16): 3
Number of patients who received platelet transfusion ([1]; 3.0 mg once daily, n = 16): 3
Endpoint 2: Number of patients who had a platelet count during the trial that increased by 2 × 10^4/μL or more from the count before initiation of administration and reached to 5 × 10^4/μL or higher ([1]; 4.0 mg once daily, n = 15): 12
Number of patients to whom administration was discontinued according to the administration discontinuating criteria ([1]; 4.0 mg once daily, n = 15): 5
Number of patients who received platelet transfusion ([1]; 4.0 mg once daily, n = 15): 4
efficacy at each dose ([1]; all doses (2.0, 3.0 and 4.0 mg)): all doses showed the efficacy
Emax (sigmoid Emax model), mean [2]: 3.52
kdeg (elimination rate constant from the platelet compartment), mean [2]: 1.61e-06 s⁻¹
km (inter-PD-compartmental transfer rate constant), mean [2]: 0.0394 h⁻¹
r (sigmoid Emax model), mean [2]: 2.03
EC50 ([2]; 50 mg/dose): 0.0216 µg/mL (≈ 0.0365 µM)
EC50 ([2]; <50 mg/dose): 0.0647 µg/mL (≈ 0.109 µM)
